Experiments:
Fas = experiment: DTSSP cross-linking assay, Fas; assay type: cell-based; conditions: crosslinker DTSSP, prolonged incubation
Experimental: For FADD immunoprecipitation, 4 μg anti-mouse FADD pAb (Santa Cruz, H-181) were incubated with 100 μl protein A/G agarose for 2 hrs at RT. 3 million/ml purified CD4 T cells were stimulated with HSLs or left untreated. The cells were then collected and lysed with IP lysis buffer (50 mM HEPES pH 7.4, 150 mM NaCl, 1% NP-40, 1 mM EDTA, 1 mM PMSF, 1 mM NaF, 1 mM NaVO3 and protease inhibitor cocktails). The cell lysates were added into antibody-bead mixtures for 3 hrs at 4° C. Beads were then collected by low speed centrifugation (1000 g, 5 min) and washed 4 times with IP lysis buffer (300 mM NaCl added). After the last wash, pellets were suspended with 70 ul 2×SDS loading buffer and boiled for 5 min. For caspase 8 immunoprecipitation, 4 μg anti-Caspase 8 pAb (Santa Cruz, C-20) was incubated with 100 μl protein A/G agarose for 1 hr at RT. 3 million/ml H9 cells were treated with HSLs or left untreated. The samples were processed as in FADD IP. For cross-linking assay, CD4+ T cells isolated from C57BL/6 mice spleen or human THP-1 cells was stimulated with HSLs or left untreated, then cells were collected and cross-linked by 10 mM DTSSP at RT for 30 min and quenched with 1M Tris-HCl (pH7.5) for 15 min. […]

Lipid binding assay = assay type: physicochemical; conditions: DOPC, DPPC, PE, cholesterol, sphingomyelin individually or in combination
Experimental: 1 mg/ml of each lipid species in chloroform was coated on round glass slides by evaporation.
Then the glass slices were incubated with 100 μM 3OC12 HSL in DMSO in PBS at 37° C. After the incubation, the glass slices were washed slightly with PBS for 4-5 times and lipids were dissolved with DMSO. The amount of 3OC12 HSL in each sample was measured by QS bioassay as described above.

EGFR [1] = experiment: MSFQ, EGFR dimerization; assay type: cell-based, human; conditions: in comparison with the carrier treatment
Experimental: Single molecule photo-bleaching step counting: 0.5 μg TNFR1(1-293)-peGFP-N1 plasmid or 0.5 μg EGFR-peGFP-N1 plasmid was transfected into HeLa cells and cultured for 5-6 hrs. Then the cells were stimulated with HSLs, TNF α, or left untreated, and washed twice with PBS and fixed with 4% paraformaldehyde before imaging. GFP was excited at 488 nm with a laser power of 5 mW measured after the laser passing through the objective. The collected fluorescent signal was gated by a band-pass filter HQ 525/50 (Chroma Technology). The EM gain of the EMCCD camera was set at 300. Movies of 400 frames were acquired for each sample at a full-frame rate of 10 Hz. For imaging analysis, the background fluorescence was firstly subtracted from the movie acquired from the fixed cells using the rolling ball method in Image J software, and regions of interest on movies were selected manually according to the outline of cells. To analyze the bleaching steps, the fluorescence time courses of each fluorescent spots were first constructed by Image J plugin and bleaching steps were then counted manually.

[2] = Atomic force microscopy of reconstituted lipid domains; assay type: physicochemical
Experimental: […] The dried lipid film was resuspended with 4 mM HEPES buffer (with 150 mM NaCl) to produce SUV. Vesicle solution (100 μl) was added to freshly cleaved mica clamped in a fluid cell on the AFM heater head. After incubation at 55° C. for 30 min and then kept at RT for another 30 min, the bilayers were rinsed extensively with HEPES buffer to remove excess vesicles.
AFM images were obtained at RT on a NanoScope V Multimode Scanning Probe Microscope (Digital Instrument, Veeco, Santa Barbara, Calif., USA) in the tapping mode using V shape Si3N4 tips (model DNL-10) with spring constants of ˜0.35 N/m and resonance frequencies between 8 and 10 kHz in aqueous solutions. All experiments were conducted in Hepes buffer using a commercially available fluid cell, sealed by an O-ring. A J scanner (125 μm×125 μm) was used with a scan rate between 0.8 and 2 Hz per line.

ZAP70 = ZAP70 phosphorylation in live cells recovered from T cell culture; assay type: cell-based; conditions: live cells recovered from the culture
EGFR [3] = experiment: EGFR phosphorylation; assay type: cell-based; conditions: in the absence of the ligand

With `CCCCCCCCCC(=O)CC(=O)N[C@H]1CCOC1=O` [3OC12 HSL, N-(3-oxo-dodecanoyl) homoserine lactone] the Fas oligomerization (Fas) was “did not show a significant change”, the “retention by coated lipid components” value (Lipid binding assay) was “only lipid components containing cholesterol, sphingomyelin and DOPC were able to efficiently retain” and the EGFR dimerization (EGFR [1]) was “increased the dimerization”. The “appearance of ordered lipid domains” value ([2]; domains with cholesterol and sphingolipids) was “clear dissolution of the elevated plains”, the “appearance of smaller domains unrelated to lipid rafts” value ([2]; mixture of DOPC and DPPG) was “minimally affected” and the ZAP70 phosphorylation (ZAP70) was “minimally affected”. The EGFR phosphorylation (EGFR [3]) was “became detectable”.

Source: patent publication US11583570B2, “Use of autoinducer-related pathway in inducing apoptosis and anti-infective therapy” (TSINGHUA UNIVERSITY, priority 2017, dated 2023)
